Laboratory results as given in ChEMBL document CHEMBL1201862, “PubChem BioAssay data set” (2004).
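The compound was tested at five concentrations on cells cultured in 96-well plates, with a 48-hour exposure period. Here, GI50 denotes the concentration required for 50% inhibition of growth.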 Calls of active or inactive are those of the source. No stated cut-off is given here; in the data, active = GI50 up to about 1.1 µM and inactive = higher.

Key:
Experiment in all cases: NCI-60 cell line screen, 48 h
A498 = test system: A498
A549 = test system: A549
IGROV-1 = test system: IGROV-1
KM12 = test system: KM12
Malme-3M = test system: Malme-3M
NCI-H23 = test system: NCI-H23
NCI-H522 = test system: NCI-H522
OVCAR-8 = test system: OVCAR-8
RXF 393 = test system: RXF 393
SF-268 = test system: SF-268
SK-MEL-28 = test system: SK-MEL-28
SK-OV-3 = test system: SK-OV-3
SW-620 = test system: SW-620
TK-10 = test system: TK-10
U-251 = test system: U-251
OVCAR-4 = test system: OVCAR-4
HOP-92 = test system: HOP-92
SR = test system: SR

Row | Compound | GI50 (A498) | GI50 (A549) | GI50 (IGROV-1) | GI50 (KM12) | GI50 (Malme-3M) | GI50 (NCI-H23) | GI50 (NCI-H522) | GI50 (OVCAR-8) | GI50 (RXF 393) | GI50 (SF-268) | GI50 (SK-MEL-28) | GI50 (SK-OV-3) | GI50 (SW-620) | GI50 (TK-10) | GI50 (U-251) | GI50 (OVCAR-4) | GI50 (HOP-92) | GI50 (SR)
1 | COc1nc(=O)cc(N)n1C1OC(CO)C(O)C1O (centres undefined) | > 100 µM (inactive) | > 100 µM (inactive) | > 100 µM (inactive) | > 100 µM (inactive) | > 100 µM (inactive) | > 100 µM (inactive) | > 100 µM (inactive) | > 100 µM (inactive) | > 100 µM (inactive) | > 100 µM (inactive) | > 100 µM (inactive) | > 100 µM (inactive) | > 100 µM (inactive) | > 100 µM (inactive) | > 100 µM (inactive) | – | – | –
2 | c1ccc2c(c1)c1ccccc1c1n[se]nc21 | 19.5 µM (inactive) | 52.6 µM (inactive) | 36.1 µM (inactive) | > 100 µM (inactive) | > 100 µM (inactive) | > 100 µM (inactive) | > 100 µM (inactive) | 50.2 µM (inactive) | 68.5 µM (inactive) | > 100 µM (inactive) | > 100 µM (inactive) | 26 µM (inactive) | > 100 µM (inactive) | 48.4 µM (inactive) | > 100 µM (inactive) | > 100 µM (inactive) | – | –
3 | O=C(CSc1nc(-c2ccccc2)c(-c2ccccc2)[nH]1)N/N=C/c1ccc(O)cc1 | – | 24.2 µM (inactive) | 26.4 µM (inactive) | 22.6 µM (inactive) | 21.4 µM (inactive) | 3.76 µM (inactive) | 20.2 µM (inactive) | 17.2 µM (inactive) | 24.2 µM (inactive) | 26.6 µM (inactive) | 32.1 µM (inactive) | 24.8 µM (inactive) | 30.8 µM (inactive) | 27.6 µM (inactive) | 20.3 µM (inactive) | – | 22.8 µM (inactive) | 16.4 µM (inactive)
4 | O=S(=O)(/C=C/C(=C/c1ccccc1)S(=O)(=O)c1ccccc1)c1ccccc1 | – | 2.13 µM (inactive) | 4.06 µM (inactive) | 2.16 µM (inactive) | 1.81 µM (inactive) | 1.93 µM (inactive) | 1.45 µM (inactive) | 1.63 µM (inactive) | 1.73 µM (inactive) | 1.91 µM (inactive) | 1.49 µM (inactive) | 1.44 µM (inactive) | 2.04 µM (inactive) | 1.85 µM (inactive) | 1.83 µM (inactive) | 1.67 µM (inactive) | – | 1.51 µM (inactive)
5 | C[N+](C)(C)CC1CCCC/C1=N\OC(=O)c1ccccc1 (centres undefined) | – | > 100 µM (inactive) | > 100 µM (inactive) | > 100 µM (inactive) | > 100 µM (inactive) | > 100 µM (inactive) | > 100 µM (inactive) | > 100 µM (inactive) | > 100 µM (inactive) | > 100 µM (inactive) | > 100 µM (inactive) | > 100 µM (inactive) | > 100 µM (inactive) | 36.1 µM (inactive) | > 100 µM (inactive) | > 100 µM (inactive) | > 100 µM (inactive) | > 100 µM (inactive)
6 | C/C(CC(=O)Nc1cccc(C)c1C)=N\NC(N)=S | > 100 µM (inactive) | > 100 µM (inactive) | > 100 µM (inactive) | > 100 µM (inactive) | > 100 µM (inactive) | > 100 µM (inactive) | > 100 µM (inactive) | > 100 µM (inactive) | > 100 µM (inactive) | > 100 µM (inactive) | > 100 µM (inactive) | > 100 µM (inactive) | – | > 100 µM (inactive) | > 100 µM (inactive) | > 100 µM (inactive) | > 100 µM (inactive) | 26.2 µM (inactive)
7 | NS(=O)(=O)c1cc2c(cc1Cl)NC(/C(=N/NC(=O)c1ccncc1)C1C(=O)NC(=O)NC1=O)=NS2(=O)=O | > 100 µM (inactive) | > 100 µM (inactive) | > 100 µM (inactive) | > 100 µM (inactive) | > 100 µM (inactive) | – | – | > 100 µM (inactive) | – | – | – | > 100 µM (inactive) | > 100 µM (inactive) | > 100 µM (inactive) | > 100 µM (inactive) | > 100 µM (inactive) | > 100 µM (inactive) | –
8 | C#CCN(N=O)C(=O)NCCCCC(NC(=O)OCc1ccccc1)C(=O)OCc1ccccc1 (centres undefined) | > 100 µM (inactive) | – | 76 µM (inactive) | > 100 µM (inactive) | 29.9 µM (inactive) | 34.6 µM (inactive) | 15.3 µM (inactive) | 38.9 µM (inactive) | 25.4 µM (inactive) | 27.6 µM (inactive) | 49.5 µM (inactive) | > 100 µM (inactive) | 17.4 µM (inactive) | > 100 µM (inactive) | 48.9 µM (inactive) | > 100 µM (inactive) | 20.3 µM (inactive) | –
9 | Cc1ccccc1NC(=O)C(=O)C(C#N)c1ccc(Cl)cc1 (centres undefined) | > 100 µM (inactive) | 95.5 µM (inactive) | 63.7 µM (inactive) | 44.6 µM (inactive) | > 100 µM (inactive) | 56.5 µM (inactive) | 50.7 µM (inactive) | 46.6 µM (inactive) | > 100 µM (inactive) | 69.8 µM (inactive) | 67.5 µM (inactive) | > 100 µM (inactive) | 15.4 µM (inactive) | 81.5 µM (inactive) | 51.1 µM (inactive) | – | 45.8 µM (inactive) | –
10 | Cc1cc(NS(=O)(=O)c2ccc(Nc3c4ccccc4nc4c(C(=O)Nc5ccc(S(N)(=O)=O)cc5)cccc34)cc2)no1 | > 100 µM (inactive) | > 100 µM (inactive) | 70.1 µM (inactive) | 20.6 µM (inactive) | 17.9 µM (inactive) | 47.5 µM (inactive) | 24.2 µM (inactive) | 51.9 µM (inactive) | 90.6 µM (inactive) | 36.9 µM (inactive) | 28.9 µM (inactive) | > 100 µM (inactive) | 74.3 µM (inactive) | > 100 µM (inactive) | 24.8 µM (inactive) | 23.4 µM (inactive) | 33 µM (inactive) | –
11 | COc1ccc(C=O)c(N(C)C(=O)C(C)(C)C)c1 | > 100 µM (inactive) | > 100 µM (inactive) | > 100 µM (inactive) | > 100 µM (inactive) | > 100 µM (inactive) | > 100 µM (inactive) | > 100 µM (inactive) | > 100 µM (inactive) | > 100 µM (inactive) | > 100 µM (inactive) | > 100 µM (inactive) | > 100 µM (inactive) | > 100 µM (inactive) | > 100 µM (inactive) | > 100 µM (inactive) | > 100 µM (inactive) | > 100 µM (inactive) | –
12 | C=C(c1ccccc1N)[C@@]1(O)C[C@H](/C(=C\C)CO)C[C@@H]1NCc1ccccc1 | 82.6 µM (inactive) | 37 µM (inactive) | 31.9 µM (inactive) | 18.2 µM (inactive) | 13.4 µM (inactive) | 29.9 µM (inactive) | 17.1 µM (inactive) | 24.5 µM (inactive) | 16.7 µM (inactive) | 30.8 µM (inactive) | 18.3 µM (inactive) | 21.5 µM (inactive) | 21.7 µM (inactive) | 20.8 µM (inactive) | 17.2 µM (inactive) | 26.7 µM (inactive) | 3.78 µM (inactive) | –
13 | Sc1nnc(/C=C/c2ccc(Cl)c(Cl)c2)[nH]1 | 53.8 µM (inactive) | > 100 µM (inactive) | > 100 µM (inactive) | > 100 µM (inactive) | > 100 µM (inactive) | > 100 µM (inactive) | 94 µM (inactive) | > 100 µM (inactive) | > 100 µM (inactive) | > 100 µM (inactive) | > 100 µM (inactive) | 0.0173 µM (active) | > 100 µM (inactive) | > 100 µM (inactive) | 58.5 µM (inactive) | – | – | –
14 | NNC(=O)/C(=C/c1ccc(Cl)c(Cl)c1)NC(=O)c1ccccc1 | – | > 100 µM (inactive) | > 100 µM (inactive) | > 100 µM (inactive) | > 100 µM (inactive) | > 100 µM (inactive) | – | > 100 µM (inactive) | > 100 µM (inactive) | > 100 µM (inactive) | > 100 µM (inactive) | – | > 100 µM (inactive) | > 100 µM (inactive) | > 100 µM (inactive) | 76 µM (inactive) | 40.5 µM (inactive) | –
15 | CC(C)(C)C1CCC2c3c([nH]c4ccccc34)C3C(=O)N(c4ccc(Br)cc4)C(=O)C3C2C1 (centres undefined) | 28.6 µM (inactive) | 17.7 µM (inactive) | 21.1 µM (inactive) | 22.3 µM (inactive) | 33.9 µM (inactive) | 18.8 µM (inactive) | – | 21.7 µM (inactive) | – | 24.5 µM (inactive) | 48.2 µM (inactive) | – | 19.8 µM (inactive) | 20.5 µM (inactive) | – | 16.9 µM (inactive) | 24.3 µM (inactive) | –
16 | COC(=O)/C1=C/C2CC(/C=C(/c3ccccc3)C(=O)O1)C2 | – | 29.9 µM (inactive) | 42.4 µM (inactive) | 23.8 µM (inactive) | 12.1 µM (inactive) | 17 µM (inactive) | 16.7 µM (inactive) | 23.1 µM (inactive) | 25.1 µM (inactive) | – | 23.8 µM (inactive) | 36.7 µM (inactive) | 33.7 µM (inactive) | 32.7 µM (inactive) | 19.7 µM (inactive) | – | – | –
17 | Cc1noc2cccc(O)c12 | > 100 µM (inactive) | > 100 µM (inactive) | > 100 µM (inactive) | > 100 µM (inactive) | > 100 µM (inactive) | > 100 µM (inactive) | > 100 µM (inactive) | > 100 µM (inactive) | > 100 µM (inactive) | > 100 µM (inactive) | > 100 µM (inactive) | > 100 µM (inactive) | > 100 µM (inactive) | > 100 µM (inactive) | > 100 µM (inactive) | > 100 µM (inactive) | > 100 µM (inactive) | –
